Results: patent US12534436B2, “Disubstituted adamantyl derivative or pharmaceutically acceptable salt thereof, and pharmaceutical composition for suppressing cancer growth comprising same as active ingredient” (ONECUREGEN CO., LTD., priority 2020, dated 2026)

Key:
[1] = test system: CCD-34Lu normal lung fibroblasts; test: Cell viability by methylene blue colorimetric assay, normal cells CCD-34Lu; type: cell-based; conditions: Homo sapiens, Fibroblast; methylene blue assay (FIG. 1B); read-out: GI50, growth of normal cells CCD-34Lu
Description: (§1) Among the newly synthesized adamantyl compounds, it was evaluated how compound 21c (LW1564, Compound 21-3), FIG. 1A) affected proliferation suppression of various cancer cells. Human breast cancer cells (MCF7), human cervical cancer cells (HeLa), human colorectal cancer cells (HCT116, HCT15, LoVo, SW480, SW620 and WiDr), human fibrosarcoma cells (HT1080), human gastric cancer cells (NCI-N87, NUGC3 and SNU484), human liver cancer cells (HepG2, HT17, Huh7, SHJ1 and SK-Hep1), human lung cancer cells (A549 and H1299), human pancreatic cancer cells (AsPC1 and MIA-PaCa2) and normal lung fibroblasts (CCD-34Lu and WI-38) were purchased from the American Type Culture Collection (Manassas, Virginia, USA) or KRIBB Cell Line Bank (Daejeon). For cell culture, cells were cultured in a DMEM medium (Gibco, Grand Island, New York, USA) supplemented with 5% (v/v) fetal bovine serum (WelGENE, Daegu, Korea) and 100 U/ml penicillin and 100 μg/ml streptomycin (Gibco). Cells were maintained at 37° C. in a humidified incubator with 5% CO2, and hypoxia and a multi-gas incubator (Sanyo, Osaka, Japan) was adjusted to 1% O2, 94% N2 and 5% CO2. Cell viability was determined by methylene blue colorimetric assay as described in the “Chou, T. C. […] The dye was eluted with 0.1% HCl (v/v) and quantified at 600 nm on a Molecular Devices EMax (Molecular Devices, CA, USA). […]

[2] = test system: WI-38 normal lung fibroblasts; test: Cell viability by methylene blue colorimetric assay, normal cells WI-38; type: cell-based; conditions: Homo sapiens, methylene blue assay (FIG. 1B), read-out: GI50, growth of normal cells WI-38
Description: as §1

[3] = test system: HIF-1α activity; test: HRE-luciferase assay in HepG2 cells; type: cell-based; conditions: Homo sapiens; HepG2 cells (FIG. 2A)
Description: In the presence of oxygen, when the proline residue of the oxygen-dependent degradation (ODD) domain of HIF-1α is hydroxylated by prolyl hydroxylase (PHD), HIF-1α degradation is promoted by binding to Von Hippel-Lindau syndrome (VHL) associated with VCB-Cul2 E3 ligase that induces proteolysis. […] First, HIF-1α activity was investigated using HRE-luciferase assay in HepG2 cells treated with LW1564 (compound 21-3). The HRE-luciferase reporter assay was performed as previously described using the luciferase assay system (Promega, Madison, WI, USA) according to the manufacturer's instructions (Naik, R. et al. Synthesis and Structure-Activity Relationship of (E)Phenoxyacrylic Amide Derivatives as Hypoxia-Inducible Factor (HIF) la Inhibitors. J. Med. Chem. 55, 10564-1057 (2012)). Luciferase activity was measured using a Victor X light luminescence reader (PerkinElmer, Boston, MA, USA).

[4] = test system: HIF-1α mRNA; test: qPCR of HIF-1α mRNA; type: cell-based, human; conditions: qPCR (FIG. 2C)
Text: In addition, the amount of HIF-1α mRNA in LW1564-treated cells was investigated by a qPCR method. Total RNA was isolated using TRIzol reagent (Invitrogen), and cDNA was synthesized using TOPscript™ DryMIX (Enzynomics, Seoul, Korea). The HIF1A primer sequences are Fwd 5′-CTGACCCTGCACTCAATCAAG-3′ and Rev 5′-TGGGACTATTAGGCTCAGGTG-3.

[5] = test system: HIF-1α; test: HIF-1α protein accumulation in other cancer cell lines under hypoxia; type: cell-based, human; conditions: A549, WiDr, MIA-CaCa2 and HCT116 (FIG. 2D)
[6] = test system: ATP production; test: ATP production and ATP content (ENLITEN ATP assay kit), HepG2 cells; type: cell-based, human
Description: Next, the effect of mitochondrial respiration on ATP production by oxidative phosphorylation was evaluated by comparing the amount of ATP produced by glycolysis decomposition and mitochondrial respiration in the presence of LW1564 (compound 21-3). ATP content was determined as described in “Chou, T. C. Theoretical basis, experimental design, and computerized simulation of synergism and antagonism in drug combination studies. Pharmacol. Rev. 58, 621-681 (2006).” After HepG2 cells were seeded and incubated with LW1564 (compound 21-3) for 6 hours, ATP content was measured using an ENLITEN® ATP assay kit (Promega, Madison, WI, USA) according to the manufacturer's instructions. Under normoxic conditions, HepG2 cells gained 47% of ATP by mitochondrial respiration and 53% by glycolysis decomposition. […] Compensatory upregulation of this degradation in response to suppression of oxidative phosphorylation occurred by AMPK activation, which was induced by a high AMP/ATP ratio.

[7] = test system: lipid synthesis; test: Nile red staining of lipid accumulation in HepG2 cells; type: cell-based, human; conditions: 24 hours (FIG. 5B)
Description: In order to explore this possibility, the effect of LW1564 (compounds 21-3) on lipid synthesis using Nile red, a fluorescent probe that binds to hydrophobic molecules such as lipid droplets was evaluated. Nile red staining was performed as described in “1. Huang, D. et al. HIF-1-mediated suppression of acyl-CoA dehydrogenases and fatty acid oxidation is critical for cancer progression. Cell Rep. 8, 1930-1942 (2014).” HepG2 cells were treated with LW1564 (compound 21-3) for 24 hours and then stained with 200 nM Nile Red and 1 μM Calcein AM for 10 minutes. Data were collected and analyzed with an IncuCyte ZOOM® system (Essen BioScience). For normalization, cell viability was measured using a cell-permeant fluorescent dye, Calcein AM.

COc1cc2c(cc1OC)CN(C(=O)C13CC4CC(C1)CC(c1ccc(OCC(=O)N5CCN(Cc6ccc(C(F)(F)F)cc6)CC5)cc1)(C4)C3)CC2 [Compound 21c, 2-(4-(3-(6,7-Dimethoxy-1,2,3,4-tetrahydroisoquinoline-2-carbonyl)adamantan-1-yl)phenoxy)-1-(4-(4-(trifluoromethyl)benzyl)piperazin-1-yl) ethanone]
GI50 [1]: > 20 µM
GI50 [2]: > 20 µM
IC50 [3]: 1.2 µM
amount of HIF-1α mRNA [4]: no change in the amount of HIF-1α mRNA
HIF-1α protein accumulation in various cancer cell lines [5]: significantly reduced HIF-1α protein accumulation
glycolysis-derived ATP production ([6]; HepG2 cells (FIG. 3B)): increased
total ATP production, short period of time ([6]; HepG2 cells (FIG. 3B)): slightly decreased total ATP production
intracellular total ATP levels, longer period ([6]; HepG2 cells (FIG. 3C)): significantly decreased intracellular total ATP levels
mitochondrial-derived ATP production ([6]; HepG2 cells, normoxic, untreated cells 47% of ATP by mitochondrial respiration (FIG. 3B)): 16%
lipid accumulation (Nile red) [7]: reduced lipid accumulation in a concentration-dependent manner
